Measured values taken from paper PMC11679033, “Assessing the Potential Synergistic/Antagonistic Effects of Citrinin and Cannabidiol on SH-SY5Y, HepG2, HEK293 Cell Lines, and Human Lymphocytes” (Toxins, 2024).
Marks after values point to notes of the source that are not given here.

Legend:
[1] = test system: human peripheral blood lymphocytes; experiment: Cytokinesis-Block Micronucleus Cytome (CBMN Cyt) Assay; settings: 24 h, citrinin 30 µM, CBD 1 µM, bleomycin 1.25 µg/mL; for Distribution of BNMN Cells with 1 MN / Distribution of BNMN Cells with 2 MNi / Distribution of BNMN Cells with 3 MNi / Distribution of BNNB Cells with 1 NB / Distribution of BNNB Cells with 2 NBs / Micronuclei (MNi) and BNMN Cells: Total (BNNB)6000 / Micronuclei (MNi) and BNMN Cells: Total (MNi)6000 / Nuclear Buds (NBs) and BNNB Cells: Total (BNNB)6000 / Nuclear Buds (NBs) and BNNB Cells: Total (NBs)6000 / Nucleoplasmic Bridges (NPBs) and BNNPB Cells: Total (BNNPB)6000 / Nucleoplasmic Bridges (NPBs) and BNNPB Cells: Total (NPBs)6000: in 6000 BN cells; for Cell Death: Total (Apoptosis)6000 / Cell Death: Total (Necrosis)6000: in 6000 cells; for Micronuclei (MNi) and BNMN Cells: Mean (BNMN)1000 ± SD / Micronuclei (MNi) and BNMN Cells: Mean (MNi)1000 ± SD / Nuclear Buds (NBs) and BNNB Cells: Mean (BNNB)1000 ± SD / Nuclear Buds (NBs) and BNNB Cells: Mean (NBs)1000 ± SD / Nucleoplasmic Bridges (NPBs) and BNNPB Cells: Mean (BNNPB)1000 ± SD / Nucleoplasmic Bridges (NPBs) and BNNPB Cells: Mean (NPBs)1000 ± SD: per 1000 BN cells; for Cell Death: Mean (Apoptosis)1000 ± SD / Cell Death: Mean (Necrosis)1000 ± SD: per 1000 cells
Description: The experimental design included the establishment of lymphocyte cultures, and the 24 h treatments with the test compounds, performed according to the last OECD recommendations, given in the Test Guideline No. 487—In Vitro Mammalian Cell Micronucleus Test.
The selection of specific concentrations of test compounds adhered to the guidelines for in vitro genotoxicity testing using comet assay. […] Solutions used in testing were prepared just prior to treatment by dissolving the test compounds in ethanol (Kemika, Zagreb, Croatia).
Two independent trials, with six experimental groups each, were conducted. A total of six replicate cultures for every single experimental group were established. This step was carried out as follows: aliquots of heparinized blood (V = 600 μL per culture) were pipetted into a growth medium RPMI-1640 (Gibco, Grand Island, NY, USA) supplemented with 10% fetal calf serum (Gibco, Grand Island, NY, USA) and antibiotics (penicillin and streptomycin; Sigma-Aldrich, Steinheim, Germany). Lymphocytes were stimulated with a mitogen phytohemagglutinin (Remel, Lenexa, KS, USA) in order to induce cell division prior to exposure to the test chemicals. Cultures were maintained in the humidified atmosphere of 5% CO2 at 37 °C (Heraeus Hera Cell 240 incubator; Langenselbold, Germany).
Negative controls (NCs) were non-treated lymphocytes. Solvent controls (SCs) were lymphocytes treated with ethanol (its final concentration in the culture corresponded to 0.03%). Positive controls (PCs) were lymphocytes treated for 24 h with bleomycin at 1.25 µg/mL (according to [69]). The other three groups were lymphocytes exposed to single CIT, single CBD, and their combination (CIT + CBD, at the same concentrations).
Treatments with test compounds started 20 h after the initial establishment of the cell cultures and lasted for 24 h. Upon completion of the exposure, aliquots of 100 µL of the treated cultures were pipetted in sterile conditions and used to prepare microgels for the alkaline comet assay. The remaining content of flasks was further processed using Cytokinesis-Block Micronucleus Cytome (CBMN Cyt) Assay.
CBMN Cyt Assay was performed according to standard protocols proposed for micronucleus assay. Upon completion of the exposure, lymphocyte cultures were subjected to centrifugation at 100× g using a benchtop centrifuge (ROTOFIX 32A, Hettich, Tuttlingen, Germany). During this process, cells settled to the bottom of the tube. The growth medium with tested compounds was removed by pipetting, discarded and replaced with a fresh amount of complete growth medium RPMI-1640 that contained Cytochalasin B (cytoB; Sigma-Aldrich, Steinheim, Germany) at a final concentration of 6 µg/mL. This procedure was timed to the 44th hour of lymphocyte cultivation, as that time is a critical point for the addition of cytoB to inhibit cytokinesis and obtain binucleated cells. All treated and control cultures were further maintained in the previously described conditions at 37 °C until the end of the 72nd hour of cultivation, as proposed by protocols. Then, the preparation of microscopic slides started, which included harvesting of cells by centrifugation (100× g, ROTOFIX 32A centrifuge, Hettich, Tuttlingen, Germany), followed by hypotonic treatment (0.075 mol/L KCl; Kemika, Zagreb, Croatia), and a new round of centrifugation. The resulting sediments of cells were fixed in several repeating stages with methanol–acetic acid (3:1 v/v; both obtained from Kemika, Zagreb, Croatia) followed by centrifugation. The final lymphocyte suspension was dropped onto clean microscope slides.

[2] = test system: HepG2 cells; experiment: MTS viability assay, HepG2; type: cell-based, human; settings: for lowest observed adverse effect level (LOAEL), approximate / cell viability at LOAEL concentrations: HepG2, 24 h; for cell viability at LOAEL concentrations: CBD 1 μM, CIT 30 μM, alone or combined
Description: (§1) Human neuroblastoma SH-SY5Y cells (ECACC 94030304), human hepatocyte carcinoma HepG2 (ECACC 85011430) and human embryonic kidney HEK293 (ECACC 85120602) used in the experiments were obtained from the European Collection of Authenticated Cell Cultures (ECACC) through Sigma-Aldrich (Steinheim, Germany). SH-SY5Y cells were grown in Dulbecco’s Modified Eagle’s Medium F12 containing 15% (v/v) fetal bovine serum (FBS), 2 mM glutamine, 1% (v/v) penicillin/streptomycin (PenStrep solution), and 1% (v/v) non-essential amino acids (NEAA solution). HEK293 and HepG2 cells were grown in EMEM medium (Sigma-Aldrich, Steinheim, Germany) supplemented with 10% (v/v) FBS, 2 mM glutamine, 1% (v/v) PenStrep and 1% (v/v) NEAA. All media and supplements were purchased from Sigma-Aldrich, Steinheim, Germany. Cells were cultured at 37 °C in a 5% CO2 atmosphere, the medium was changed every two days, and passage was carried out according to the manufacturer’s protocol.
(§2) MTS assay (CellTiter 96® AQueous One Solution Cell Proliferation Assay, Promega, Madison, WI, USA) was used to determine the viability of cells/cytotoxic properties of tested compounds by measuring cells’ mitochondrial succinate dehydrogenase activity. The procedure followed a previously described protocol. In brief, the cells were seeded in transparent 96-well plates at a density of 20,000 cells/well one day before the experiment and treated with tested compounds in concentrations: 0.01, 0.1, 0.5, 1, 2, 5, 10, 25, 50, 100 and 300 µM. Triton X-100 at a final concentration of 0.18% (v/v) (stock of 9% in water; Sigma-Aldrich, Steinheim, Germany) was used as a positive control. After 24 h, treatment with tested compounds and incubation with MTS reagent, the absorbance was read at 492 nm on an Infinite M200PRO (Tecan Group Ltd., Männedorf, Switzerland) plate reader. Data were taken from at least three independent experiments (each treatment performed in duplicate or triplicate) and expressed as percentages (mean ± standard error) of viable cells compared to control (untreated) cells. IC50 values were determined by a nonlinear fit equation predefined in Prism software 8 (GraphPad Software, San Diego, CA, USA).
(§3) The same method was used to evaluate a potential toxic synergistic effect on cells exposed to a combination of CBD and CIT at approximately LOAEL doses (lowest observed adverse effect level, 1 and 30 μM for SH-SY5Y and HepG2, and 2 and 0.05 μM for HEK293, respectively). There is no official recommendation for CBD oral use, but according to the available literature, we used a dose that corresponded to daily intake, which was 10 mg/kg/day (calculated on a person of 70 kg ~ 1 μM). These selected LOAEL concentrations were used for all other assays as well.

[3] = MTS viability assay, HepG2; type: cell-based, human; settings: human, HepG2 cells; HepG2, 24 h exposure, MTS; read-out: IC50 (cytotoxicity)
Description: as §1, §2, §3

C=C(C)[C@@H]1CCC(C)=C[C@H]1c1c(O)cc(CCCCC)cc1O [CBD, cannabidiol]
Distribution of BNMN Cells with 1 MN [1]: 17 | Distribution of BNMN Cells with 2 MNi [1]: 0 | Distribution of BNMN Cells with 3 MNi [1]: 0 | Distribution of BNNB Cells with 1 NB [1]: 25 ^a | Distribution of BNNB Cells with 2 NBs [1]: 0 | Micronuclei (MNi) and BNMN Cells: Total (BNNB)6000 [1]: 17 | Micronuclei (MNi) and BNMN Cells: Total (MNi)6000 [1]: 17 | Nuclear Buds (NBs) and BNNB Cells: Total (BNNB)6000 [1]: 25 ^a | Nuclear Buds (NBs) and BNNB Cells: Total (NBs)6000 [1]: 25 ^a | Nucleoplasmic Bridges (NPBs) and BNNPB Cells: Total (BNNPB)6000 [1]: 0 | Nucleoplasmic Bridges (NPBs) and BNNPB Cells: Total (NPBs)6000 [1]: 0 | Cell Death: Total (Apoptosis)6000 [1]: 19 ^a | Cell Death: Total (Necrosis)6000 [1]: 9 | Micronuclei (MNi) and BNMN Cells: Mean (BNMN)1000 ± SD [1]: 2.8 ± 0.8 | Micronuclei (MNi) and BNMN Cells: Mean (MNi)1000 ± SD [1]: 2.8 ± 0.8 | Nuclear Buds (NBs) and BNNB Cells: Mean (BNNB)1000 ± SD [1]: 4.2 ± 0.4 ^a | Nuclear Buds (NBs) and BNNB Cells: Mean (NBs)1000 ± SD [1]: 4.2 ± 0.4 ^a | Nucleoplasmic Bridges (NPBs) and BNNPB Cells: Mean (BNNPB)1000 ± SD [1]: 0 | Nucleoplasmic Bridges (NPBs) and BNNPB Cells: Mean (NPBs)1000 ± SD [1]: 0 | Cell Death: Mean (Apoptosis)1000 ± SD [1]: 3.2 ± 0.8 ^a,b | Cell Death: Mean (Necrosis)1000 ± SD [1]: 1.5 ± 1.0 | lowest observed adverse effect level (LOAEL), approximate [2]: ~ 1 μM | cell viability at LOAEL concentrations [2]: did not independently impact cell viability | cytotoxicity fold higher than CIT ([2]; in both HepG2 and SH-SY5Y, 24 h): 1.5- to 4 fold | IC50 at 24 h [3]: 40 ± 7 µM

CC1=C2C(=CO[C@H](C)[C@H]2C)C(O)=C(C(=O)O)C1=O [CIT, citrinin]
Distribution of BNMN Cells with 1 MN [1]: 66 ^a,b,d,e | Distribution of BNMN Cells with 2 MNi [1]: 5 | Distribution of BNMN Cells with 3 MNi [1]: 0 | Distribution of BNNB Cells with 1 NB [1]: 69 ^a,b,d,e | Distribution of BNNB Cells with 2 NBs [1]: 5 | Micronuclei (MNi) and BNMN Cells: Total (BNNB)6000 [1]: 71^a,b,d,e | Micronuclei (MNi) and BNMN Cells: Total (MNi)6000 [1]: 74 ^a,b,d,e | Nuclear Buds (NBs) and BNNB Cells: Total (BNNB)6000 [1]: 74 ^a,b,d,e | Nuclear Buds (NBs) and BNNB Cells: Total (NBs)6000 [1]: 79 ^a,b,d,e | Nucleoplasmic Bridges (NPBs) and BNNPB Cells: Total (BNNPB)6000 [1]: 4 | Nucleoplasmic Bridges (NPBs) and BNNPB Cells: Total (NPBs)6000 [1]: 4 | Cell Death: Total (Apoptosis)6000 [1]: 50 ^a,b,d,e | Cell Death: Total (Necrosis)6000 [1]: 45 ^a,b,d,e | Micronuclei (MNi) and BNMN Cells: Mean (BNMN)1000 ± SD [1]: 11.7 ± 1.4 ^a,b,d,e | Micronuclei (MNi) and BNMN Cells: Mean (MNi)1000 ± SD [1]: 12.3 ± 1.6 ^a,b,d,e | Nuclear Buds (NBs) and BNNB Cells: Mean (BNNB)1000 ± SD [1]: 12.3 ± 3.1 ^a,b,d,e | Nuclear Buds (NBs) and BNNB Cells: Mean (NBs)1000 ± SD [1]: 13.2 ± 3.7 ^a,b,d,e | Nucleoplasmic Bridges (NPBs) and BNNPB Cells: Mean (BNNPB)1000 ± SD [1]: 0.7 ± 0.5 | Nucleoplasmic Bridges (NPBs) and BNNPB Cells: Mean (NPBs)1000 ± SD [1]: 0.7 ± 0.5 | Cell Death: Mean (Apoptosis)1000 ± SD [1]: 8.3 ± 1.6 ^a,b,d,e | Cell Death: Mean (Necrosis)1000 ± SD [1]: 7.5 ± 0.8 ^a,b,d,e | lowest observed adverse effect level (LOAEL), approximate [2]: ~30 µM | cell viability at LOAEL concentrations [2]: did not independently impact cell viability | IC50 at 24 h [3]: 59 ± 9 µM
